For the assay, the system named is murine neural precursor cells (neurosphere cultures). As to the kind of experiment: HTS of LOPAC library against secondary neurosphere cultures, MTT proliferation assay at 3 μM, day 7 (z score, P value). The assay is classed as cell-based, mouse. (In general: Tetrazolium dyes change colour on reduction, which living cells bring about.)
Where [1] appears, read: LOPAC primary screen, neurosphere MTT proliferation, 3 μM, day 7.
The mark [2] stands for this setting: yes/no: significantly inhibited neurosphere proliferation (P<0.01) in the primary screen.
Setting [3] is: primary LOPAC screen, 3 μM, MTT, neurosphere proliferation.
The mark [4] stands for this setting: yes/no: significantly inhibited neurosphere proliferation in the primary screen.
Setting [5] is: LOPAC library screen, 3 μM, MTT, neurosphere cultures.
The mark [6] stands for this setting: LOPAC screen, neurosphere MTT proliferation, 3 μM, day 7.
Where [7] appears, read: yes/no: significantly inhibited neurosphere proliferation (P<0.01) in primary screen.
Setting [8] is: LOPAC library screen at 3 μM, secondary neurosphere cultures, MTT.
The mark [9] stands for this setting: yes = significantly inhibited neurosphere proliferation (P<0.01) in the primary screen.
The mark [10] stands for this setting: LOPAC library screen, 3 μM, MTT, secondary neurosphere cultures, day 7.

These results are taken from patent US8058243B2, “Method for treating a brain cancer with ifenprodil” (HSC Research and Development Limited Partnership, priority 2006, dated 2011).

Counter-ions that a name gives are not always drawn. Like-named read-outs stand apart in the source and are kept apart here. Residues, ends and D or L forms follow the SMILES beside them. *: point of attachment. Cbz = O=C(OCc1ccccc1)*

As for `COc1cc2nc(N3CCN(C(=O)OCc4ccccc4)[C@H](C(=O)NC(C)(C)C)C3)nc(N)c2cc1OC` [L-765,314], the “Z Score” value is −0.8308. This compound gave a Z score under setting [1] of −0.831. Further, under setting [2], the Activity entry is recorded as “no”.
Turning to `N=C(N)NCCC[C@H](N)C(=O)O` [L-Arginine], the “Z Score” value turned out to be 0.5592. In addition, under setting [3], the Z score is on record as 0.559. Under setting [4], the Activity result is recorded as “no”.
With `N[C@@H](CC(=O)O)C(=O)O` [L-Aspartic acid], the Activity result was “no”. Where the note is “168 h, 3 µM”, the “Z Score” value stood at 0.1632 and the Z score was 0.163.
As for `CCCCS(=N)(=O)CCC(N)C(=O)O` [L-Buthionine-sulfoximine], under setting [5], the “Z Score” value is listed as 0.5134. Further, the Z score under setting [6] was 0.513. The Activity result under setting [7] is listed as “no”.
Take `N=C(N)NOCC[C@H](N)C(=O)O.O=S(=O)(O)O` [L-Canavanine sulfate]: the “Z Score” value is on record as −0.9024. This compound returned a Z score under setting [6] of −0.902. For the same compound, under setting [7], the Activity result is recorded as “no”.
For the compound `N[C@H]1CONC1=O` [L-Cycloserine], the “Z Score” value under setting [8] is on record as −0.1552. The compound also returned a Z score under setting [3] of −0.155. Further, the Activity result under setting [4] was “no”.
Take `N[C@@H](CS(=O)O)C(=O)O` [L-Cysteinesulfinic Acid]: the “Z Score” value under setting [5] came to 1.458. Under setting [6], this compound yielded a Z score of 1.458. Also, the Activity entry under setting [7] is listed as “no”.
Take `Cl.N[C@@H](CCC(=O)O)C(=O)O` [L-Glutamic acid hydrochloride]: the “Z Score” value was −0.4727. This compound displayed a Z score under setting [1] of −0.473. Further, the Activity entry under setting [7] is “no”.
Take `NC(=O)CC[C@H](N)C(=O)O` [L-Glutamine]: for the setting “168 h, 3 µM”, the “Z Score” value is 0.8278 and the Z score is 0.828. Moreover, the Activity entry under setting [7] is on record as “no”.
Take `Cl.N[C@@H](Cc1c[nH]cn1)C(=O)O` [L-Histidine hydrochloride]: the “Z Score” value is −1.421. The Z score under setting [1] is recorded as −1.421. Moreover, under setting [7], the Activity entry is reported as “no”.
Regarding `CC(C)C[C@H](N)CSSC[C@@H](N)CC(C)C.Cl.Cl` [L-Leucinethiol, oxidized dihydrochloride], the “Z Score” value was −0.584. Also, the Z score under setting [1] was −0.584. In addition, the Activity result under setting [7] is listed as “no”.
`CC(=N)NCCC[C@H](N)C(=O)O.Cl` [L-N5-(1-Iminoethyl)ornithine hydrochloride]: the “Z Score” value is recorded as −0.9339. Under setting [1], this compound showed a Z score of −0.934. The Activity result under setting [7] was “no”.
The like results for `CC(=N)NCCCC[C@H](N)C(=O)O.Cl` [L-N6-(1-Iminoethyl)lysine hydrochloride] were, in that order, −0.3809, −0.381 and “no”.
Regarding `N[C@@H](Cc1c[nH]c2ccccc12)C(=O)O` [L-Tryptophan], the Activity entry is recorded as “no”, the “Z Score” value came out at 0.2241 and the Z score was determined as 0.224.
As for `C=CC[C@H](N)C(=O)O` [L-allylglycine], where the note is “168 h, 3 µM”, the “Z Score” value is −1.155 and the Z score is −1.155. Under setting [4], the Activity result was “no”.
For `C[C@](N)(Cc1ccc(O)c(O)c1)C(=O)O` [L-alpha-Methyl DOPA], the “Z Score” value is recorded as −0.897. Also, the Z score under setting [1] is −0.897. Moreover, the Activity result under setting [9] is “no”.
As to `C[C@](N)(Cc1ccc(O)cc1)C(=O)O` [L-alpha-Methyl-p-tyrosine], the “Z Score” value is given as −1.8. This compound also gave a Z score under setting [1] of −1.800. The Activity entry under setting [9] was “no”.
For the compound `O=C(O)[C@@H]1CCN1` [L-azetidine-2-carboxylic acid], the “Z Score” value is 0.9837. The compound also displayed a Z score under setting [1] of 0.984. Moreover, for the setting “yes/no: significantly inhibited neurosphere proliferation in primary screen”, the Activity result is reported as “no”.
In the case of `CN1CCc2ccccc2Cc2[nH]c3ccccc3c2CC1` [LE 300], the Activity entry was “no”, the “Z Score” value is −1.07 and the Z score is −1.070.
Take `C/C(O)=C(\C#N)C(=O)Nc1cc(Br)ccc1Br` [LFM-A13]: the “Z Score” value is 4.5. Under setting [1], this compound registered a Z score of 4.500. In addition, the Activity result under setting [7] was “no”.
For `CC(O)C(C)OC(=O)[C@@H]1C[C@@H]2c3cccc4c3c(cn4C(C)C)C[C@H]2N(C)C1.O=C(O)/C=C\C(=O)O` (some centres unmarked) [LY-53,857 maleate], the “Z Score” value was −0.3382. In addition, the Z score under setting [1] is −0.338. Also, under setting [2], the Activity result is listed as “no”.
`CN1C2CCC1CC(NC(=O)c1nn(C)c3ccccc13)C2.O=C(O)/C=C\C(=O)O` (centres unmarked) [LY-278,584 maleate]: the “Z Score” value is −1.074. The same compound had a Z score under setting [1] of −1.074. Also, under setting [9], the Activity entry is listed as “no”.
For the compound `Cl.O=c1cc(N2CCOCC2)oc2c(-c3ccccc3)cccc12` [LY-294,002 hydrochloride], the “Z Score” value was −1.217. The Z score under setting [1] is recorded as −1.217. Further, the Activity entry under setting [7] is given as “no”.
On to `CC(CCc1ccccc1)NCC(O)c1ccc(O)c(C(N)=O)c1` (centres unmarked) [Labetalol hydrochloride], for which the Activity entry is “no”. Further, under setting [8], the “Z Score” value is on record as −1.097. Under setting [1], this compound had a Z score of −1.097.
Take `Nc1nnc(-c2cccc(Cl)c2Cl)c(N)n1` [Lamotrigine]: the “Z Score” value under setting [8] was −1.095. The Z score under setting [1] is on record as −1.095. Also, the Activity result under setting [7] is on record as “no”.
For `Cc1c(OCC(F)(F)F)ccnc1C[S+]([O-])c1nc2ccccc2[nH]1` (centres unmarked) [Lansoprazole], under setting [5], the “Z Score” value was −0.0336. The same compound showed a Z score under setting [1] of −0.034. Besides, the Activity entry under setting [7] is recorded as “no”.
As to `Cc1oncc1C(=O)Nc1ccc(C(F)(F)F)cc1` [Leflunomide], the “Z Score” value (LOPAC library screen at 3 μM, MTT, secondary neurosphere cultures, screened in singlets) is on record as 4.103. Besides, the Z score under setting [1] is on record as 4.103. Also, the Activity entry under setting [7] is “no”.
As to `C=CCN1CC[C@]23CCCC[C@H]2[C@H]1Cc1ccc(O)cc13` [Levallorphan tartrate], the “Z Score” value under setting [8] is −0.3465. The compound further came in with a Z score under setting [1] of −0.346. Moreover, the Activity entry under setting [9] is “no”.
With `CC[N+](C)(CC)CC(=O)Nc1c(C)cccc1C.[Cl-]` [Lidocaine N-methyl hydrochloride], the “Z Score” value under setting [8] is listed as −0.6828. This compound had a Z score under setting [1] of −0.683. Moreover, the Activity entry under setting [7] is given as “no”.
For the compound `CCN(CC)CC(=O)Nc1c(C)cccc1C` [Lidocaine hydrochloride], the “Z Score” value under setting [8] is given as −0.1111. Under setting [1], this compound returned a Z score of −0.111. Under setting [7], the Activity entry is recorded as “no”.
In the case of `O=C1N(c2ccccc2)c2ccccc2C1(Cc1ccncc1)Cc1ccncc1` [Linopirdine], under setting [8], the “Z Score” value is given as −0.5525. This compound had a Z score under setting [1] of −0.553. In addition, the Activity result under setting [9] is “no”.
With `[Cl-].[Li+]` [Lithium Chloride], the “Z Score” value is recorded as −0.9113. The Z score under setting [1] was −0.911. Besides, the Activity entry under setting [7] is recorded as “no”.
`CCn1cc(C(=O)O)c(=O)c2cc(F)c(N3CCNC(C)C3)c(F)c21` (centres unmarked) [Lomefloxacin hydrochloride]: the Activity entry was “no”. For the same compound, under setting [5], the “Z Score” value is 0.1374. Under setting [1], the Z score is on record as 0.137.
For the compound `O=C(O)c1nn(Cc2ccc(Cl)cc2Cl)c2ccccc12` [Lonidamine], the “Z Score” value under setting [5] stood at 0.4358. Besides, the Z score under setting [1] came out at 0.436. Moreover, under setting [7], the Activity result was “no”.
Regarding `CN(C)C(=O)C(CCN1CCC(O)(c2ccc(Cl)cc2)CC1)(c1ccccc1)c1ccccc1` [Loperamide hydrochloride], the “Z Score” value was −0.4976. The compound further had a Z score under setting [1] of −0.498. The Activity entry under setting [7] was “no”.
`CCOC(=O)N1CCC(=C2c3ccc(Cl)cc3CCc3cccnc32)CC1` [Loratadine]: the “Z Score” value under setting [10] is listed as −1.823. The same compound displayed a Z score under setting [1] of −1.823. Under setting [7], the Activity result is on record as “no”.
In the case of `CCCCCN(CCCCC)C(=O)C(CCC(=O)O)NC(=O)c1ccc(Cl)c(Cl)c1` (centres unmarked) [Lorglumide sodium], under setting [10], the “Z Score” value is on record as −2.092. The Z score under setting [1] is −2.092. The Activity entry under setting [9] was “no”.
For the compound `CN1CCN(C2=Nc3ccccc3Oc3ccc(Cl)cc32)CC1` [Loxapine succinate], the “Z Score” value is reported as −0.7477. Under setting [1], this compound registered a Z score of −0.748. Further, under setting [7], the Activity result is recorded as “no”.
With `O=c1cc(-c2ccc(O)c(O)c2)oc2cc(O)cc(O)c12` [Luteolin], the “Z Score” value under setting [10] is −1.323. Also, the Z score under setting [1] was −1.323. For the same compound, the Activity result under setting [7] is “no”.
Turning to `O=C(O)/C(=C/c1c(C(=O)O)[nH]c2cc(Cl)cc(Cl)c12)c1ccccc1` [MDL 105,519], the Activity entry was “no”, the “Z Score” value came to 2.565 and the Z score was 2.565.
For `CC(C)[C@H](NC(=O)OCc1ccccc1)C(=O)N[C@H](C=O)Cc1ccccc1` [MDL 28170] (Cbz-Val-Phe-aldehyde), for the setting “168 h, 3 µM”, the “Z Score” value is −1.139 and the Z score was −1.139.
For the compound `CC[N+](CC)(CC)CCOc1ccc(/C=C/c2ccccc2)cc1` [MG 624], under “168 h, 3 µM”, the “Z Score” value was −10.66 and the Z score is on record as −10.660. In addition, the Activity result under setting [2] is on record as “yes”.
With `COc1cc(C(O)CO)ccc1OS(=O)(=O)[O-].[K+]` (centres unmarked) [MHPG sulfate potassium], the “Z Score” value is given as −0.5556. Under setting [1], this compound returned a Z score of −0.556. Further, under setting [7], the Activity entry is on record as “no”.
As for `CCCCCCCCCCCCCCCCOCC(COCC(F)(F)F)OP(=O)(O)OC` (centres unmarked) [MJ33], the “Z Score” value was found to be 1.364. The compound further gave a Z score under setting [1] of 1.364. Besides, the Activity entry under setting [9] is “no”.
Turning to `CC(C)c1ccc2c(c1)c(SC(C)(C)C)c(CC(C)(C)C(=O)O)n2Cc1ccc(Cl)cc1` [MK-886], the “Z Score” value was −1.549. Besides, the Z score under setting [1] was −1.549. The Activity result under setting [9] is given as “no”.
